Data taken from patent US20250129070A1, “BIFUNCTIONAL ANDROGEN RECEPTOR COMPOUNDS” (priority 2023, published 2025).

Tested on: AR / CBP ternary complex
Test: Ternary complex formation assay (sandwich ELISA, AR capture / CBP detection) in VCaP cell lysates
Type: cell-based
Conditions: 1.5 hours treatment, sandwich ELISA (AR capture, CBP or p300 detection)
Protocol: Preparation of Mouse Anti-AR Antibody Coated 96 Well Plates
Black MaxiSorp plates: coat with 50 μL of mouse 1/50 diluted AR antibody (Monoclonal Antibody (AR 441 from Thermo Fisher); diluted in phosphate buffered saline (PBS). Spin the liquid to the bottom of the wells, if necessary. Incubate overnight at 4° C. Next day, wash 3 times with 200 μL of TBST. Block with 200 μL of blocking buffer (5% BSA in TBST) at room temperature for 2 hours (BSA: A4503 or A2153 from Sigma). Wash plates 3 times with TBST. Plates are ready for lysates Preparation of dimerizer treated lysates
Culture cells in 96 wells at 50K VCaP cells/well for at least 3 days. Plate in 5% Omega charcoal stripped FBS in total volume of 200 uL. Treat with bifunctional for 1.5 hours by adding 1 μL of 200× stock in DMSO. Aspirate media/compound. Add and pipet-to-mix 70 μL of 1× AlphaLisa Lysis Buffer to each well (Perkin Elmer, AlphaLISA SureFire Ultra, diluted in water). Pipet up and down when adding lysis buffer to disrupt cells. Let lysis proceed for 30 min at 4° C.
Incubate for 1 hour at room temperature. Flick out the lysates. Wash 3 times with TBST. Add 75 μL of rabbit CBP or p300 antibody to each well (diluted 1:5000 in blocking buffer (5% BSA in TBST). CBP antibody: (D6C5) Rabbit mAb #7389; p300 antibody: (D8Z4E) Rabbit mAb #86377. Incubate overnight at 4° C. Wash 3 times with 300 uL TBST, each time on shaker for 5-10 min. Prepare goat anti-rabbit antibody conjugated to HRP (1/100K dilution in blocking buffer) Invitrogen Catalog number: 32260. Add 75 μL of HRP-conjugated goat anti-rabbit antibody. Incubate at room temperature for 1 hour. Flick out the HRP-antibody mixture. Wash 7-8 times with TBST, each time on shaker for 10 min. Later washes try to overflow the wells so that no residual HRP remains bound to the sides of the well. Prepare and add 75 uL/well of QuantaRed Enhance Chemifluorescent HRP Substrate solution. Immediately read fluorescence on BMG ClarioStar (ex: 570/em 585), and repeat the read in 5 minutes and 15 minutes.

| Compound | EC50 [nM] |
| --- | --- |
| CC(=O)N1CCc2c(c(N3CCCc4cc(-c5cnn(C)c5)c(C(F)F)cc43)nn2C2CCC3(CC2)CCN(c2ncc(C(=O)NC4C(C)(C)C(Oc5ccc(C#N)c(Cl)c5)C4(C)C)cn2)C3)C1 (stereo not drawn) [Compound 407, 2-[8-[5-acetyl-3-[7-(difluoromethyl)-6-(1-methylpyrazol-4-yl)-3,4-dihydro-2H-quinolin-1-yl]-6,7-dihydro-4H-pyrazolo[4,3-c]pyridin-1-yl]-2-azaspiro[4.5]decan-2-yl]-N-[3-(3-chloro-4-cyano-phenoxy)-2,2,4,4-tetramethyl-cyclobutyl]pyrimidine-5-carboxamide] | 10 to 100 |
| CC(=O)N1CCc2c(c(-c3cccc4cc(-c5ccc(COCC6CCN(c7ncc(C(=O)NC8C(C)(C)C(Oc9ccc(C#N)c(Cl)c9)C8(C)C)cn7)CC6)nc5)ncc34)nn2C2CCOCC2)C1 (stereo not drawn) [Compound 143, 2-[4-[[5-[8-(5-acetyl-1-tetrahydropyran-4-yl-6,7-dihydro-4H-pyrazolo[4,3-c]pyridin-3-yl)-3-isoquinolyl]-2-pyridyl]methoxymethyl]-1-piperidyl]-N-[3-(3-chloro-4-cyano-phenoxy)-2,2,4,4-tetramethyl-cyclobutyl]pyrimidine-5-carboxamide] | < 1 |
| CC(=O)N1CCc2c(c(N3CCCc4cc(-c5cnn(C)c5)c(C(F)F)cc43)nn2C2CCN(C(=O)C3CN(c4ncc(C(=O)NC5C(C)(C)C(Oc6ccc(C#N)c(Cl)c6)C5(C)C)cn4)C3)CC2)C1 (stereo not drawn) [Compound 118, 2-[3-[4-[5-acetyl-3-[7-(difluoromethyl)-6-(1-methylpyrazol-4-yl)-3,4-dihydro-2H-quinolin-1-yl]-6,7-dihydro-4H-pyrazolo[4,3-c]pyridin-1-yl]piperidine-1-carbonyl]azetidin-1-yl]-N-[3-(3-chloro-4-cyano-phenoxy)-2,2,4,4-tetramethyl-cyclobutyl]pyrimidine-5-carboxamide] | > 100 |
| COc1cc(OC2C(C)(C)C(NC(=O)c3ccc(N4CC(N5CC6(CCC(n7nc(N8CCCc9cc(-c%10cnn(C)c%10)c(C(F)F)cc98)c8c7CCN(C(C)=O)C8)CC6)C5)C4)cc3)C2(C)C)ccc1C#N (stereo not drawn) [Compound 370, 4-[3-[7-[5-acetyl-3-[7-(difluoromethyl)-6-(1-methylpyrazol-4-yl)-3,4-dihydro-2H-quinolin-1-yl]-6,7-dihydro-4H-pyrazolo[4,3-c]pyridin-1-yl]-2-azaspiro[3.5]nonan-2-yl]azetidin-1-yl]-N-[3-(4-cyano-3-methoxy-phenoxy)-2,2,4,4-tetramethyl-cyclobutyl]benzamide] | < 1 |
| CC(=O)N1CCc2c(c(-c3cccc4cc(-c5ccc(C(=O)N6CCC(OCc7ncc(C(=O)NC8C(C)(C)C(Oc9ccc(C#N)c(Cl)c9)C8(C)C)cn7)C6)nc5)ncc34)nn2C2CCOCC2)C1 (racemic) [Compound 131, N-[3-(3-chloro-4-cyano-phenoxy)-2,2,4,4-tetramethyl-cyclobutyl]-2-[[rac-(3S)-1-[5-[8-(5-acetyl-1-tetrahydropyran-4-yl-6,7-dihydro-4H-pyrazolo[4,3-c]pyridin-3-yl)-3-isoquinolyl]pyridine-2-carbonyl]pyrrolidin-3-yl]oxymethyl]pyrimidine-5-carboxamide] | < 1 |
| CC(=O)N1CCc2c(c(N3CCCc4cc(-c5cnn(C)c5)c(C(F)F)cc43)nn2C2CCN(C(=O)C3CCN(c4ccc(C(=O)NC5C(C)(C)C(Oc6ccc(C#N)c(Cl)c6)C5(C)C)cn4)CC3)CC2)C1 (stereo not drawn) [Compound 115, 6-[4-[4-[5-acetyl-3-[7-(difluoromethyl)-6-(1-methylpyrazol-4-yl)-3,4-dihydro-2H-quinolin-1-yl]-6,7-dihydro-4H-pyrazolo[4,3-c]pyridin-1-yl]piperidine-1-carbonyl]-1-piperidyl]-N-[3-(3-chloro-4-cyano-phenoxy)-2,2,4,4-tetramethyl-cyclobutyl]pyridine-3-carboxamide] | < 1 |
